Test results taken from patent publication US11512053B2, “Arginine methyltransferase inhibitors and uses thereof” (priority 2013, dated 2022).

Target: T1, human CARM1 (PRMT4) (Flag- and His-tagged) (Homo sapiens, UniProt Q86X55)
T1 construct: Flag-CARM1-His; made in house; host or cells: HEK 293F cells (BacMam baculovirus)
T1 sequence (Q86X55 1-585 isoform Q86X55-1): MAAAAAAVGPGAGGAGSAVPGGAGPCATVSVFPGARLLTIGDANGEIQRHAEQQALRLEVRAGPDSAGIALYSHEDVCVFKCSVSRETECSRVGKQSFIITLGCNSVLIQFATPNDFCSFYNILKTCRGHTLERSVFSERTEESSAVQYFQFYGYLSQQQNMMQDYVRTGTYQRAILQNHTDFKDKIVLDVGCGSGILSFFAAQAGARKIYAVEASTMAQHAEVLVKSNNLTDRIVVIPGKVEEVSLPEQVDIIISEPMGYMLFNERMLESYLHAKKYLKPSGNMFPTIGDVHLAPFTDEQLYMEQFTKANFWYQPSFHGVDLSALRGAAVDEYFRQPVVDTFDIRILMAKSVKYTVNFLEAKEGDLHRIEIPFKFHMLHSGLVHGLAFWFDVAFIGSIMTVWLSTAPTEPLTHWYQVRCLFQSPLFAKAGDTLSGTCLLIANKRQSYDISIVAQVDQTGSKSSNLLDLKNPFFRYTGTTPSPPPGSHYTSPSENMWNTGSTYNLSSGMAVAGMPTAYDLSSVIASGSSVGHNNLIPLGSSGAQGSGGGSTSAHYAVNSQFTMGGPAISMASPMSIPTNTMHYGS
Test: CARM1 Biochemical Assay (3H-SAM Flashplate, peptide substrate)
Details: not given
From the text: General Materials. S-adenosylmethionine (SAM), S-adenosylhomocysteine (SAH), bicine, Tween20, dimethylsulfoxide (DMSO), bovine skin gelatin (BSG), sodium butyrate and Tris(2-carboxyethyl)phosphine hydrochloride solution (TCEP) were purchased from Sigma-Aldrich at the highest level of purity possible. ^3H-SAM was purchase from American Radiolabeled Chemicals with a specific activity of 80 Ci/mmol. 384-well streptavidin Flashplates were purchased from PerkinElmer.
Substrates. Peptide representative of human histone H3 residues 16-30 was synthesized with an N-terminal linker-affinity tag motif and a C-terminal amide cap by 21st Century Biochemicals. The peptide was purified by high-performance liquid chromatography (HPLC) to greater than 95% purity and confirmed by liquid chromatography mass spectrometry (LC-MS). The sequence was Biot-Ahx-[…]-amide and contained a monomethylated arginine at position 26 (SEQ ID NO.:14).
Molecular Biology: Human CARM1 (PRMT4) (NM_199141.1) transcript clone was amplified from an HEK 293 cDNA library, incorporating a flanking 5′ sequence encoding a FLAG tag ([…]) (SEQ ID NO.:6) fused directly to Ala 2 of CARM1 and 3′ sequence encoding a hexa His sequence ([…]) (SEQ ID NO.:15) fused directly to Ser 608. The gene sequence encoding isoform1 containing a deletion of amino acids 539-561 was amplified subsequently and subcloned into pFastBacMam (Viva Biotech).
Protein Expression. Recombinant baculovirus were generated according to Bac-to-Bac kit instructions (Life Technologies). […] Infections were carried out at 37° C. for 48 hours, harvested by centrifugation, and stored at −80° C. for purification.
Protein Purification. […] Column was washed with 500 mM NaCl in buffer A and Flag-CARM1-His was eluted with 200 ug/ml FLAG peptide in buffer A. Pooled fractions were dialyzed in 20 mM Tris, 150 mM NaCl, 5% glycerol and 1 mM DTT, pH 7.8. The purity of recovered protein was 94.
General Procedure for CARM1 Enzyme Assays on Peptide Substrates. The assays were all performed in a buffer consisting of 20 mM Bicine (pH=7.6), 1 mM TCEP, 0.005% BSG, and 0.002% Tween 20, prepared on the day of use. Compounds in 100% DMSO (1 ul) were spotted into a polypropylene 384-well V-bottom plates (Greiner) using a Platemate Plus outfitted with a 384-channel head (Thermo Scientific). DMSO (1 ul) was added to Columns 11, 12, 23, 24, rows A-H for the maximum signal control and 1 ul of SAH, a known product and inhibitor of CARM1, was added to columns 11, 12, 23, 24, rows I-P for the minimum signal control. A cocktail (40 ul) containing the CARM1 enzyme was added by Multidrop Combi (Thermo-Fisher). The compounds were allowed to incubate with CARM1 for 30 min at room temperature, then a cocktail (10 ul) containing ^3H-SAM and peptide was added to initiate the reaction (final volume=51 ul). The final concentrations of the components were as follows: CARM1 was 0.25 nM, ^3H-SAM was 30 nM, peptide was 250 nM, SAH in the minimum signal control wells was 1 mM, and the DMSO concentration was 2%. The assays were stopped by the addition of non-radiolabeled SAM (10 ul) to a final concentration of 300 uM, which dilutes the ^3H-SAM to a level where its incorporation into the peptide substrate is no longer detectable. 50 ul of the reaction in the 384-well polypropylene plate was then transferred to a 384-well Flashplate and the biotinylated peptides were allowed to bind to the streptavidin surface for at least 1 hour before being washed once with 0.1% Tween20 in a Biotek ELx405 plate washer. The plates were then read in a PerkinElmer TopCount plate reader to measure the quantity of ^3H-labeled peptide bound to the Flashplate surface, measured as disintegrations per minute (dpm) or alternatively, referred to as counts per minute (cpm).
Where dpm=disintegrations per minute, cmpd=signal in assay well, and min and max are the respective minimum and maximum signal controls. […]

`CN(CCN)Cc1c[nH]nc1C1=CCOCC1` [Compound 10] and `CN(CCN)Cc1c[nH]nc1C1CC1` [Compound 12] cannot be ordered by IC50: over 10000 nM for the first, over 10000 nM for the second.

With `CC(C)c1n[nH]cc1CN(C)CCN` [Compound 21] the IC50 was over 10000 nM.

Same assay, conditions: single experiment or average of multiple experiments

Going from `CNCCN(C)Cc1c[nH]nc1C#Cc1cccc(OC)c1` [Compound 1] to `CNCCN(C)Cc1c[nH]nc1C#Cc1ccc(F)cc1` [Compound 4], the IC50 rises from 260 nM to 500 nM (1.9-fold). The first is the more potent here.

First: CNCCN(C)Cc1c[nH]nc1C#Cc1ccc(C(C)(C)C)cc1 [Compound 2]
Second: CNCCN(C)Cc1c[nH]nc1/C=C/c1ccc(C(F)(F)F)cc1 [Compound 6]
The IC50 of the first is 5.2-fold lower: 110 nM for the first, 570 nM for the second.

First: CNCCN(C)Cc1c[nH]nc1/C=C/c1ccc(-c2ccccc2)cc1 [Compound 5]
Second: CNCCN(C)Cc1c[nH]nc1/C=C/c1ccc(OC)cc1 [Compound 7]
The IC50 of the first is 3.4-fold higher: 310 nM for the first, 90 nM for the second. The second is the more potent here.

Compared with `Cc1ccc(/C=C/c2n[nH]cc2CN(C)CCN)cc1` [Compound 8], `CN(CCN)Cc1c[nH]nc1/C=C/c1ccc(C(F)(F)F)cc1` [Compound 18] is 3.7-fold lower in IC50: 370 nM for the first, 100 nM for the second.

`CN(CCN)Cc1c[nH]nc1C1=CCOCC1` [Compound 10] and `CN(CCN)Cc1c[nH]nc1C1CC1` [Compound 12] cannot be ordered by IC50: over 10000 nM for the first, over 10000 nM for the second.

Compared with `COc1cc(/C=C/c2n[nH]cc2CN(C)CCN)cc(OC)c1` [Compound 11], `COc1cccc(/C=C/c2n[nH]cc2CN(C)CCN)c1` [Compound 17] is 1.8-fold higher in IC50: 50 nM for the first, 90 nM for the second.

`CN(CCN)Cc1c[nH]nc1/C=C/c1ccc(F)cc1F` [Compound 13] and `CN(CCN)Cc1c[nH]nc1/C=C/c1cccc(F)c1` [Compound 20] are within 1.5-fold of each other in IC50: 200 nM for the first, 250 nM for the second.

First: CN(CCN)Cc1c[nH]nc1/C=C/c1cc(C(F)(F)F)cc(C(F)(F)F)c1 [Compound 14]
Second: CN(CCN)Cc1c[nH]nc1/C=C/c1cccc(C(F)(F)F)c1 [Compound 16]
The IC50 of the first is 4.6-fold higher: 510 nM for the first, 110 nM for the second. The second is the more potent here.

First: CN(CCN)Cc1c[nH]nc1/C=C/c1cc(F)cc(F)c1 [Compound 15]
Second: COC/C=C/c1n[nH]cc1CN(C)CCN [Compound 19]
The IC50 of the first is 12-fold lower: 310 nM for the first, 3780 nM for the second.

First: CC(C)c1n[nH]cc1CN(C)CCN [Compound 21]
Second: CN(CCN)Cc1c[nH]nc1C1CCCCC1 [Compound 22]
The IC50 of the first is higher: over 10000 nM for the first, 3770 nM for the second. The second is the more potent here.

For `CN(CCN)Cc1c[nH]nc1CCc1ccc(F)cc1` [Compound 23, N^1-((3-(4-fluorophenethyl)-1H-pyrazol-4-yl)methyl)-N^1-methylethane-1,2-diamine], the IC50 was 2780 nM.
